Values of other authors, collected in PMC3388080 (PLoS ONE, 2012).

Assays:
hHCRTR1 = target: hHCRTR1; set-up: method as in PMID 9821961; details: 37°C; cited from earlier work
hHCRTR2 = target: hHCRTR2; set-up: method as in PMID 9821961; details: 37°C; cited from earlier work

**Q.** What does the source list for `CNC(=O)[C@@H](c1ccccc1)N1CCc2cc(OC)c(OC)cc2[C@@H]1CCc1ccc(C(F)(F)F)cc1` [almorexant, (2R)-2-[(1S)-6,7-Dimethoxy-1-[2-(4-trifluoromethyl-phenyl)-ethyl]-3,4-dihydro-1H-isoquinolin-2-yl]-N-methyl-2-phenyl-acetamide]?
**A.** Ki (hHCRTR1): 4.7 nM; Ki (hHCRTR2): 0.9 nM
